Source: US20220274947A1, “NOVEL HETEROARYL-TRIAZOLE COMPOUNDS AS PESTICIDES” (Bayer Aktiengesellschaft, priority 2019, published 2022)

How the values were obtained:
Type in all cases: in vivo
Nilaparvata lugens = Nilaparvata lugens spray test; conditions: 96 h, rice plants, after 4 days; for mortality at 500 g/ha: application rate 500 g/ha; for mortality at 100 g/ha: application rate 100 g/ha
Method: Nilaparvata lugens—Spray Test Solvent: 78.0 parts by weight of acetone • • 1.5 parts by weight of dimethylformamide Emulsifier: alkylarylpolyglycol ether
(§1) To produce a suitable preparation of active compound, 1 part by weight of active compound is mixed with the stated amount of solvents and is diluted with water, containing an emulsifier concentration of 1000 ppm, to the desired concentration. Further test concentrations are prepared by dilution with emulsifier containing water.
Rice plants (Oryza sativa) are sprayed with a preparation of the active ingredient of the desired concentration and the plants are infested with the brown planthopper (Nilaparvata lugens).
After 4 days mortality in % is determined. 100% means all planthoppers have been killed and 0% means none of the planthoppers have been killed.

Tetranychus urticae = Tetranychus urticae spray test, OP-resistant; conditions: foliar, 144 h, application rate 100 g/ha, French bean leaf disks, after 6 days
Method: Tetranychus urticae—Spray Test OP-Resistant Solvent: 78.0 parts by weight acetone • 1.5 parts by weight dimethylformamide Emulsifier: alkylarylpolyglycol ether
as §1
French bean (Phaseolus vulgaris) leaf disks infected with all instars of the two spotted spidermite (Tetranychus urticae), are sprayed with a preparation of the active ingredient of the desired concentration.
After 6 days mortality in % is determined. 100% means all spider mites have been killed and 0% means none of the spider mites have been killed.

[1] = tested on: Blattella germanica strain PAULINIA; assay: Blattella germanica test (BLTTGE surface treatment & contact assay); conditions: exposure 30 minutes, 24 hours after contact, read-out: efficacy (mortality); for mortality at 20 mg/m2: surface concentration 20 mg/m^2, glazed tile; for mortality at 4 mg/m2: surface concentration 4 mg/m^2, glazed tile
Method: Blattella germanica Test (BLTTGE Surface Treatment & Contact Assay) Solvent: Aceton+2000 ppm rapeseed oil methyl ester (RME)
In order to produce a sufficient, active ingredient containing solution it is necessary to solve the test compound in the solvent-mix (acetone at 2 mg/ml/RME 2000 ppm). This solution is pipetted onto a glazed tile and after evaporation of the acetone, adult animals of the species Blattella germanica strain […] are placed onto the dried surface. The exposure time is 30 minutes. Mortality in percent (%) is determined 24 hours after contact of the insects to the treated surface. 100% mortality means that all tested insects are dead, whereas 0% means that no insect died.

C[C@H](NC(=O)c1ccnc(C(F)(F)F)n1)c1ncnn1-c1ccc(C#N)cn1 [II-8]
mortality at 500 g/ha (Nilaparvata lugens): 100%

C[C@H](NC(=O)c1cc(Cl)cc(C(F)F)c1)c1ncnn1-c1ccc(C#N)cn1 [II-12]
mortality at 100 g/ha (Tetranychus urticae): 90%

C[C@H](NC(=O)c1cc(C(F)(F)F)cc(C(F)(F)F)c1)c1ncnn1-c1ccc(C(=O)N(C)C2CC2)cn1 [II-38, 6-(5-{(1S)-1-[3,5-bis(trifluoromethyl)benzamido]ethyl}-1H-1,2,4-triazol-1-yl)-N-cyclopropyl-N-methylnicotinamide]
mortality at 100 g/ha (Tetranychus urticae): 90%

C[C@H](NC(=O)c1cc(Cl)cc(C(F)(F)F)c1)c1ncnn1-c1cc(-n2cncn2)ccn1 [II-43]
mortality at 500 g/ha (Nilaparvata lugens): 90%

C[C@H](NC(=O)c1cc(C(F)(F)F)cc(C(F)(F)F)c1)c1ncnn1-c1ccc(C(=O)N(C)CC2CC2)cn1 [II-73]
mortality at 500 g/ha (Nilaparvata lugens): 100%

C[C@H](NC(=O)c1cc(OC(F)F)cc(OC(F)F)c1)c1ncnn1-c1ccc(C#N)cn1 [II-77]
mortality at 20 mg/m2 [1]: 80 to 100%

C[C@H](NC(=O)c1cc(Br)cc(C(F)F)c1)c1ncnn1-c1ccc(C#N)cn1 [II-83]
mortality at 20 mg/m2 [1]: 80 to 100%

Cc1nc([C@H](C)NC(=O)c2cc(C(F)(F)F)cc(C(F)(F)F)c2)n(-c2ccc(C(=O)N(C)C3CC3)cn2)n1 [II-96]
mortality at 100 g/ha (Nilaparvata lugens): 90%

Cc1nc([C@H](C)NC(=O)c2cc(C(F)(F)F)cc(C(F)(F)F)c2)n(-c2ccc(C(=O)N(C)CC#N)cn2)n1 [II-99]
mortality at 100 g/ha (Tetranychus urticae): 90% | mortality at 100 g/ha (Nilaparvata lugens): 90%

C[C@H](NC(=O)c1cc(C(F)F)cc(C(F)F)c1)c1ncnn1-c1ccc(C#N)cn1 [II-101]
mortality at 20 mg/m2 [1]: 80 to 100%

C[C@H](NC(=O)c1cc(OC(F)(F)F)cc(C(F)F)c1)c1ncnn1-c1ccc(C#N)cn1 [II-111]
mortality at 4 mg/m2 [1]: 80 to 100% | mortality at 20 mg/m2 [1]: 80 to 100%

C[C@H](NC(=O)c1cc(OC(F)F)cc(C(F)F)c1)c1ncnn1-c1ccc(C#N)cn1 [II-116]
mortality at 4 mg/m2 [1]: 80 to 100% | mortality at 20 mg/m2 [1]: 80 to 100%
